Results from patent US9056056B2, “Processing for dispersing amino acids” (N.V. Nutricia, priority 2007, dated 2015).

Assays:
[1] = Wettability (wetting time), method of International IDF Standard 87:1979; format: physicochemical; settings: for effect of coating on the wetting time: FIG. 1, coated versus uncoated amino acid; for wetting time: amino acid not coated
Excerpt: The wettability (wetting time) can be determined using the method of International IDF Standard 87:1979.

[2] = according to Eisenburg et al., Faraday Symp. Chem. Soc. 17:109-120 (1982); cited from earlier work

SMILES	effect of coating on the wetting time [1]	wetting time [1]	Hydrophobicity of amino acids (side chain hydrophobicity, SCH) [2]
C[C@H](N)C(=O)O [Ala]	no or only a minor effect	short wetting time	+1.0 kJ/mol
CC(C)[C@H](N)C(=O)O [Val, valine]			+2.3 kJ/mol
N[C@@H](CCC(=O)O)C(=O)O [Glu]			-0.621 kcal/mol
N[C@@H](Cc1c[nH]c2ccccc12)C(=O)O [Trp, tryptophan]			+1.5 kJ/mol
N[C@@H](CC(=O)O)C(=O)O [Asp]			-0.717 kcal/mol
N[C@@H](CS)C(=O)O [Cys, cysteine]			+0.17 kJ/mol
N=C(N)NCCC[C@H](N)C(=O)O [Arg]			-1.79 kcal/mol
NCCCC[C@H](N)C(=O)O [Lys, lysine]			-1.1 kcal/mol
N[C@@H](Cc1ccc(O)cc1)C(=O)O [Tyr]	no or only a minor effect	short wetting time	+0.08 kJ/mol
CC[C@H](C)[C@H](N)C(=O)O [Ile, isoleucine]			+3.1 kJ/mol
NCC(=O)O [Gly, glycine]		short wetting time	+0.67 kJ/mol
CSCC[C@H](N)C(=O)O [Met, methionine]			+1.1 kJ/mol
N[C@@H](Cc1ccccc1)C(=O)O [Phe, phenylalanine]			+2.5 kJ/mol
O=C(O)[C@@H]1CCCN1 [Pro]			-0.0693 kcal/mol
C[C@@H](O)[C@H](N)C(=O)O [Thr, threonine]			-0.179 kcal/mol
N[C@@H](CO)C(=O)O [Ser]			-0.263 kcal/mol
N[C@@H](Cc1c[nH]cn1)C(=O)O [His]			-0.406 kcal/mol
NC(=O)C[C@H](N)C(=O)O [Asn]			-0.645 kcal/mol
